Reference: ChEMBL document CHEMBL5579832, “Design, synthesis, and biological evaluation of pyrido[2,3-d]pyrimidin-7(8H)-one derivatives as potent USP1 inhibitors” (Eur J Med Chem, 2024)
Active and inactive are the calls of the source. The calls are words filed in the database; no cut-off is given here.

What was measured:
[1] = target: T1, Ubiquitin carboxyl-terminal hydrolase 8 (Homo sapiens) (UniProt P40818); test: Inhibition of recombinant human 6His-tagged USP8 using diubiquitin as a substrate at 0 to 10 uM preincubated for 15 mins followed by substrate addition and measured after 2 hrs by SDS-PAGE analysis; details: dose 0-10 µM, time 135.0 min
T1 sequence (whole entry): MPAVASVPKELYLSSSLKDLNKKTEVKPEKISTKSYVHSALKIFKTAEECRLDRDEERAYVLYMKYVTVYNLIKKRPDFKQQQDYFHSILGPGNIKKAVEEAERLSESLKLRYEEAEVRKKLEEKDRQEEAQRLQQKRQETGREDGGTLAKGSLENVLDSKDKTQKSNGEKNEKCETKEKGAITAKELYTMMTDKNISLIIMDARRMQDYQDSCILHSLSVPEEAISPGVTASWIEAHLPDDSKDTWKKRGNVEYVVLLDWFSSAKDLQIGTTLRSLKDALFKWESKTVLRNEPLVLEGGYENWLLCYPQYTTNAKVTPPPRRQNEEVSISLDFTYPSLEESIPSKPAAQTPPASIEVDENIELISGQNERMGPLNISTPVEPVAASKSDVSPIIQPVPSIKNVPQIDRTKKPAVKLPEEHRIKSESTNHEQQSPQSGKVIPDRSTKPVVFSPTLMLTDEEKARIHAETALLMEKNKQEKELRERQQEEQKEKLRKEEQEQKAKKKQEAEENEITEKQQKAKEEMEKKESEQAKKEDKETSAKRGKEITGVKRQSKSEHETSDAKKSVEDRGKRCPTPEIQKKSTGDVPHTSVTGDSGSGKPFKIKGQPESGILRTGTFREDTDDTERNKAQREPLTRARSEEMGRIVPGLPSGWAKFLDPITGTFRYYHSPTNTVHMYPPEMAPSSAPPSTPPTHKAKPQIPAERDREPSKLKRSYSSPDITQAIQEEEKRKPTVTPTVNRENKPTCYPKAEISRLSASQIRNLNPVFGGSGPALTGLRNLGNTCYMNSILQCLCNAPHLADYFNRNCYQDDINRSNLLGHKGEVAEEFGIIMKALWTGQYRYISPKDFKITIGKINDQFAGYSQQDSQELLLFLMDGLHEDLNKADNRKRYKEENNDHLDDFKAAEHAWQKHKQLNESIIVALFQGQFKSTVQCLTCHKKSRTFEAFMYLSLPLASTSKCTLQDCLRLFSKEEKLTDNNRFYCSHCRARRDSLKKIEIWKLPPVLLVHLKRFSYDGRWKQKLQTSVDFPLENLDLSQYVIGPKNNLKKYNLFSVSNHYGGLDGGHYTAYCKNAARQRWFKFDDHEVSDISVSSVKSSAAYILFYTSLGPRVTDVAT

[2] = test system: Olaparib-resistant MDA-MB-436; test: Inhibition of colony formation in human Olaparib-resistant MDA-MB-436 cell at 100 nM measured after 7 days by SRB staining based assay relative to control; assay type: functional; details: Olaparib-resistant MDA-MB-436, 168 h, time 7 day
[3] = target: T2, Ubiquitin carboxyl-terminal hydrolase 25 (Homo sapiens) (UniProt Q9UHP3); test: Inhibition of recombinant human 6His-tagged USP25 using diubiquitin as a substrate at 0 to 10 uM preincubated for 15 mins followed by substrate addition and measured after 2 hrs by SDS-PAGE analysis; details: dose 0-10 µM, time 135.0 min
T2 sequence (whole entry): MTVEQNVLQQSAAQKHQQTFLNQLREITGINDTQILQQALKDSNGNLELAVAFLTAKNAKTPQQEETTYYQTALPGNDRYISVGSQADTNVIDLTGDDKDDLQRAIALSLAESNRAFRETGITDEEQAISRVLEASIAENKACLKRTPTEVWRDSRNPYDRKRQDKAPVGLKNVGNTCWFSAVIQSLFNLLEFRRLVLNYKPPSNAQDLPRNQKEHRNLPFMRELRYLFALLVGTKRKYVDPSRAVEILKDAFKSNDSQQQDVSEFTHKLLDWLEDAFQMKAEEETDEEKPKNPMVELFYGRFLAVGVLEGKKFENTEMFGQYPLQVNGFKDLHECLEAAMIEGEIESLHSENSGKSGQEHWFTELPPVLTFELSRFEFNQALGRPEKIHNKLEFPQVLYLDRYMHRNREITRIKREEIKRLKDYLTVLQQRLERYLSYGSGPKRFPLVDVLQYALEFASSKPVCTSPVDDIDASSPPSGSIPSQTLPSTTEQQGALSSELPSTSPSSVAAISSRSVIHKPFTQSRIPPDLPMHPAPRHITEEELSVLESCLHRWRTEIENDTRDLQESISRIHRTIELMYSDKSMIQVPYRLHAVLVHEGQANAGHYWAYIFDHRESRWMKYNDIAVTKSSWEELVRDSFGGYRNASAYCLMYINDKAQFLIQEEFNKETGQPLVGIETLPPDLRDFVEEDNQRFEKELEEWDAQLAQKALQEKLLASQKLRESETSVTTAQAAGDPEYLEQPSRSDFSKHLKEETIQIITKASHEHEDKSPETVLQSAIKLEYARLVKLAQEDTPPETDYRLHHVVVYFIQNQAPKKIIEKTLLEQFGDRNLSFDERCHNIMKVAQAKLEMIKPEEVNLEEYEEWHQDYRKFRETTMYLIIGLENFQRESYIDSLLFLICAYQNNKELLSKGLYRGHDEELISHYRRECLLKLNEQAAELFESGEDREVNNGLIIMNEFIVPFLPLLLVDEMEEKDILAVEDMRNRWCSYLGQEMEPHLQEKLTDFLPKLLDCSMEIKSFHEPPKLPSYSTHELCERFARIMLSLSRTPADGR

[4] = target: Ubiquitin carboxyl-terminal hydrolase 7 (Homo sapiens) (UniProt Q93009); test: Inhibition of recombinant human 8His-tagged USP7 using diubiquitin as a substrate at 0 to 10 uM preincubated for 15 mins followed by substrate addition and measured after 2 hrs by SDS-PAGE analysis; details: dose 0-10 µM, time 135.0 min
[5] = target: T3, Ubiquitin carboxyl-terminal hydrolase 1/WD repeat-containing protein 48 (Homo sapiens) (UniProt O94782+Q8TAF3); details: NCI-H1299, dose 20-500 nM, time 24.0 hrs
[6] = test system: Olaparib-resistant MDA-MB-436; test: Induction of cell cycle arrest in human Olaparib-resistant MDA-MB-436 cell assessed as accumulation of cells in S phase at 1 uM incubated for 24 hrs in the presence of olaparib by PI staining based flow cytometry analysis; assay type: functional
[7] = Tmax in male ICR mouse at 10 mg/kg, po administered as single dose and measured after 24 hrs; assay type: ADME, organism-based; details: in vivo
[8] = Half life in male ICR mouse at 10 mg/kg, po administered as single dose and measured after 24 hrs; assay type: ADME, organism-based; details: in vivo
[9] = target: T3, Ubiquitin carboxyl-terminal hydrolase 1/WD repeat-containing protein 48 (Homo sapiens); test: Inhibition of USP1/UAF1 in human MDA-MB-436 cells assessed as increase in Ub-PCNA level at 20 nM incubated for 24 hrs by Western blot analysis; assay type: cell-based
[10] = test system: Olaparib-resistant MDA-MB-436; test: Induction of cell cycle arrest in human Olaparib-resistant MDA-MB-436 cell assessed as increase in cells at S phase at 1 uM incubated for 24 hrs by PI staining based flow cytometry analysis; assay type: functional

Ubiquitin carboxyl-terminal hydrolase 7 (Homo sapiens), sequence (Q93009 whole entry, looked up): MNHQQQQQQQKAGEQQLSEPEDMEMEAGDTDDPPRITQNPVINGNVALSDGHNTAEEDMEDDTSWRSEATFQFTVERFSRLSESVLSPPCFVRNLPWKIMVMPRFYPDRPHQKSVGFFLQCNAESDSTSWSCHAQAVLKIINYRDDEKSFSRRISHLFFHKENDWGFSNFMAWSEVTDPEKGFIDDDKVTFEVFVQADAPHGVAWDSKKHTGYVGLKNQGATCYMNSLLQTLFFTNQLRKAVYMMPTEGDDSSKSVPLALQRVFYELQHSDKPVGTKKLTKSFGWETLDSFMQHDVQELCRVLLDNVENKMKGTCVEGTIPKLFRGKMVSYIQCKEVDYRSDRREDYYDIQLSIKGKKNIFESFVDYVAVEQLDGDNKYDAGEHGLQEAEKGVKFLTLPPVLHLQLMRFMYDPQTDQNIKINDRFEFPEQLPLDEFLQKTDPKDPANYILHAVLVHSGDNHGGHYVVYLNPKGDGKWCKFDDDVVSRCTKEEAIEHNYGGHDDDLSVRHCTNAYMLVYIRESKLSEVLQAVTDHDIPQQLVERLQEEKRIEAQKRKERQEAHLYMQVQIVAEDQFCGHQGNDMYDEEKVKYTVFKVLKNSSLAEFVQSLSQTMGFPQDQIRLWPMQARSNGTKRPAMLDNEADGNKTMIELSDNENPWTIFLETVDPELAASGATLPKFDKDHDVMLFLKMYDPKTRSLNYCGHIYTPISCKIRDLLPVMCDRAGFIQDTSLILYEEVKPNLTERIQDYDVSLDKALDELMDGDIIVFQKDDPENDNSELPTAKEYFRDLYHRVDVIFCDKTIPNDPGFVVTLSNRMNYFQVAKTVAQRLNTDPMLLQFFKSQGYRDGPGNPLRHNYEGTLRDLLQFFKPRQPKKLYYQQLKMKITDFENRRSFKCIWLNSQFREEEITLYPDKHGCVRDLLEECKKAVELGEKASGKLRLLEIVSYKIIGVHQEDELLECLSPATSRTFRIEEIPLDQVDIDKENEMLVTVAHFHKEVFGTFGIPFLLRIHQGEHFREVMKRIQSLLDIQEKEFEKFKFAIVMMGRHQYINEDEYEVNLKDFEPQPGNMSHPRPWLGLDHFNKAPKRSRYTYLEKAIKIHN

COc1ncnc(C2CC2)c1-c1ncc2ccc(=O)n(Cc3ccc(-c4nc(C(F)(F)F)cn4C(C)C)cc3)c2n1
inhibition [1]: inactive | inhibition at 0.1 µM [2]: 30% | inhibition [3]: inactive | inhibition [4]: inactive | inhibition [5]: Dose-Dependent Effect | Activity [6]: Active | Tmax [7]: 15 min | half-life [8]: 457 min | inhibition [9]: Active | Activity [10]: Active
